Source: patent US10688093B2, “Methods, compositions, and uses of novel Fyn kinase inhibitors” (priority 2015, dated 2020)

molecular target: full-length recombinant human FYN A (Homo sapiens (Human), UniProt P06241); test: ADP-Glo Kinase Assay of FYN kinase inhibition; format: biochemical; details: primary screen, initial compounds
How it was run: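 ADP-Glo read-out of peptide phosphorylation after 90 min RT with 12.5 pmol ATP and 100 pg 12-mer substrate. Enzyme was N-GST full-length human FYN A from insect cells, 3 pg, pre-incubated 30 min with compound, 10 points from 10 μM top, 3-fold steps; IC50 from curve.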

full-length recombinant human FYN A, sequence (P06241 whole entry): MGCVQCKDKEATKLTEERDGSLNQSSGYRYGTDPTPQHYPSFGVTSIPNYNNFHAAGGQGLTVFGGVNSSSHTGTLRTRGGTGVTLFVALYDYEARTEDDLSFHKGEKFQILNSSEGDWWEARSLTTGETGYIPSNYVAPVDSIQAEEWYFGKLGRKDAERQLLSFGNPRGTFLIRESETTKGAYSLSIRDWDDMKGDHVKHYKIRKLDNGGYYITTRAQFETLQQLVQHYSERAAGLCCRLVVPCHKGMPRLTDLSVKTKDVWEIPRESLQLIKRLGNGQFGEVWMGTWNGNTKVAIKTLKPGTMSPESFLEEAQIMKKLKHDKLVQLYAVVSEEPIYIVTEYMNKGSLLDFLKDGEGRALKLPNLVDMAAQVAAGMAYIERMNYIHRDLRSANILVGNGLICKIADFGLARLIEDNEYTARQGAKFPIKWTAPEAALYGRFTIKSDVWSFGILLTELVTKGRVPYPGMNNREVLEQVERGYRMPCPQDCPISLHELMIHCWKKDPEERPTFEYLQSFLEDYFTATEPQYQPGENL

Row | Structure (SMILES) | IC50 [µM]
1 | c1cncc(-c2n[nH]c3nccc(-c4ccoc4)c23)c1 [Compound 518, 4-(3-furyl)-3-(3-pyridyl)-1H-pyrazolo[3,4-b]pyridine] | 14.3
2 | COc1cc(-c2n[nH]c3nccc(-c4ccc(CO)cc4)c23)cc(OC)c1OC [Compound 519, [4-[3-(3,4,5-trimethoxy-phenyl)-1H-pyrazolo[3,4-b]pyridin-4-yl]phenyl] methanol] | 5.38
3 | COc1cccc(-c2ccnc3[nH]nc(C4CCNCC4)c23)c1 [Compound 520, 4-(3-methoxyphenyl)-3-(4-piperidyl)-1H-pyrazolo[3,4-b]pyridine] | 17.6
4 | COc1ccccc1-c1n[nH]c2nccc(-c3ccc(C#N)cc3)c12 [Compound 521, 4-[3-(2-methoxyphenyl)-1H-pyrazolo[3,4-b]pyridin-4-yl]benzonitrile] | 1.58
5 | COc1cc(-c2n[nH]c3nccc(-c4ccc(C(=O)N(C)C)cc4)c23)cc(OC)c1OC [Compound 522, N,N-dimethyl-4-[3-(3,4,5-trimethoxy-phenyl)-1H-pyrazolo[3,4-b]pyridin-4-yl]benzamide] | 11.1
6 | OCc1ccc(-c2ccnc3[nH]nc(-c4ccc5c(c4)OCO5)c23)cc1 [Compound 523, [4-[3-(1,3-benzodioxol-5-yl)-1H-pyrazolo[3,4-b]pyridin-4-yl]phenyl] methanol] | 4.64
7 | COc1ccc(F)cc1-c1ccnc2[nH]nc(C3CCNCC3)c12 [Compound 524, 4-(5-fluoro-2-methoxy-phenyl)-3-(4-piperidyl)-1H-pyrazolo[3,4-b]pyridine] | 11.7
8 | COc1cc(-c2n[nH]c3nccc(-c4ccc(S(C)(=O)=O)cc4)c23)cc(OC)c1OC [Compound 525, 4-(4-methylsulfonyl-phenyl)-3-(3,4,5-trimethoxy-phenyl)-1H-pyrazolo[3,4-b]pyridlne] | 11.2
9 | OCc1ccc(-c2ccnc3[nH]nc(-c4cccc(Cl)c4)c23)cc1 [Compound 526, [4-[3-(3-chlorophenyl)-1H-pyrazolo[3,4-b]pyridin-4-yl]phenyl] methanol] | 6.5
10 | OCc1cccc(-c2ccnc3[nH]nc(-c4ccc5c(c4)OCO5)c23)c1 [Compound 527, [3-[3-(1,3-benzodioxol-5-yl)-1H-pyrazolo[3,4-b]pyridin-4-yl]phenyl] methanol] | 3.09
11 | c1ccc(-c2n[nH]c3nccc(-c4ccoc4)c23)cc1 [Compound 528, 4-(3-furyl)-3-phenyl-1H-pyrazolo[3,4-b]pyridine] | 8.63
12 | COc1ccc(-c2ccnc3[nH]nc(-c4cc(OC)c(OC)c(OC)c4)c23)cn1 [Compound 529, 4-(6-methoxy-3-pyridyl)-3-(3,4,5-trimethoxy-phenyl)-1H-pyrazolo[3,4-b]pyridine] | 16.9
13 | c1coc(-c2ccnc3[nH]nc(C4CC4)c23)c1 [Compound 530, 3-cyclopropyl-4-(2-furyl)-1H-pyrazolo[3,4-b]pyridine] | 12.6
14 | COc1ccccc1-c1n[nH]c2nccc(-c3ccco3)c12 [Compound 531, 4-(2-furyl)-3-(2-methoxyphenyl)-1H-pyrazolo[3,4-b]pyridine] | 2.28
15 | COc1ccccc1-c1n[nH]c2nccc(-c3ccc(CO)cc3)c12 [Compound 532, [4-[3-(2-methoxyphenyl)-1H-pyrazolo[3,4-b]pyridin-4-yl]phenyl] methanol] | 1.1
16 | COc1ccccc1-c1n[nH]c2nccc(-c3cccc(C(C)=O)c3)c12 [Compound 533, 1-[3-[3-(2-methoxyphenyl)-1H-pyrazolo[3,4-b]pyridin-4-yl]phenyl] ethanone] | 6.6
17 | c1cc(-c2n[nH]c3nccc(-c4ccoc4)c23)ccn1 [Compound 534, 4-(3-furyl)-3-(4-pyridyl)-1H-pyrazolo[3,4-b]pyridine] | 20.2
18 | Nc1cccc(-c2ccnc3[nH]nc(-c4cccc(F)c4)c23)c1 [Compound 535, 3-[3-(3-fluorophenyl)-1H-pyrazolo[3,4-b]pyridin-4-yl]aniline] | 15.1
19 | NC(=O)c1cccc(-c2ccnc3[nH]nc(-c4ccccc4)c23)c1 [Compound 536, 3-(3-phenyl-1H-pyrazolo[3,4-b]pyridin-4-yl)benzamide] | 11.7
20 | COc1cc(-c2n[nH]c3nccc(-c4cccc(N)c4)c23)cc(OC)c1OC [Compound 537, 3-[3-(3,4,5-trimethoxy-phenyl)-1H-pyrazolo[3,4-b]pyridin-4-yl]aniline] | 14.8
21 | COc1cc(-c2n[nH]c3nccc(-c4cccc(F)c4)c23)cc(OC)c1OC [Compound 538, 4-(3-fluorophenyl)-3-(3,4,5-trimethoxy-phenyl)-1H-pyrazolo[3,4-b]pyridine] | 5.23
22 | O=C(O)/C=C/c1cccc(-c2cnn3ccc(NCc4cccnc4)nc23)c1 [Compound 539, (E)-3-[3-[5-(3-pyridylmethyl-amino)pyrazolo [1,5-a]pyrimidin-3-yl]phenyl]prop-2-enoic acid] | 2.27

Row | Structure (SMILES) | IC50 [µM]
23 | COc1cc(-c2cc(-c3cccc(C(N)=O)c3)cnc2N)cc(OC)c1OC [Compound 540, 3-[6-amino-5-(3,4,5-trimethoxy-phenyl)-3-pyridyl] benzamide] | 0.442
24 | CC(=O)c1ccc(-c2cnc(N)c(-c3cccc(N(C)C)c3)c2)s1 [Compound 541, 1-[5-[6-amino-5-[3-(dimethyl-amino)phenyl]-3-pyridyl]-2-thienyl]ethanone] | 3.42
25 | CNc1ccc2ncc(/C=C\CCCO)n2n1 [Compound 542, (Z)-5-[6-(methylamino)imidazo[1,2-b]pyridazin-3-yl]pent-4-en-1-ol] | 31.5
26 | COc1cc(-c2cnc3sc(NCC4CCOCC4)nn23)ccc1O [Compound 543, 2-methoxy-4-[2-(tetrahydropyran-4-ylmethyl-amino)imidazo [2,1-b][1,3,4]thiadiazo-5-yl]phenol] | 2.16
27 | COc1ccc(-c2cnc3c(NC(C)=O)cc(-c4cccc(NC(C)=O)c4)cn23)cc1OC [Compound 544, N-[3-[8-acetamido-3-(3,4-dimethoxy-phenyl)imidazo [1,2-a]pyridin-6-yl]phenyl] acetamide] | 1.6
28 | COc1cccc(-c2cc(NC(C)=O)c3ncc(-c4cccc(C(C)=O)c4)n3c2)c1 [Compound 545, N-[3-(3-acetylphenyl)-6-[3-methoxy-phenyl)imidazo [1,2-a]pyridin-8-yl]acetamide] | 3.05
29 | COc1cncc(-c2cnc3sc(NCc4ccncc4)nn23)c1 [Compound 546, 5-(5-methoxy-3-pyridyl)-N-(4-pyridylmethyl) imidazo[2,1-b][1,3,4] thiadiazol-2-amine] | 0.932
30 | OC1CCC(Nc2nn3c(-c4ccc(F)c(Cl)c4)cnc3s2)CC1 (stereo not shown) [Compound 547, 4-[[5-(3-chloro-4-fluoro-phenyl)imidazo [2,1-b][1,3,4]thiadiazol-2-yl]amino] cyclohexanol] | 4.06
31 | COc1ccc(-c2cnc3sc(NCCc4ccc(S(N)(=O)=O)cc4)nn23)cc1OC [Compound 548, 4-[2-[[5-(3,4-dimethoxyphenyl)imidazo[2,1-b] [1,3,4]thiadiazol-2-yl]amino]ethyl]benzene-sulfonamide] | 5.12
32 | COc1ccc(-c2cc(NC(C)=O)c3ncc(-c4cccc(C(C)=O)c4)n3c2)c(OC)c1 [Compound 549, N-[3-(3-acetylphenyl)-6-(2,4-dimethoxy-phenyl)imidazo [1,2-a]pyridin-8-yl]acetamide] | 2.5
33 | COc1ccc(-c2cnc3sc(NCCc4ccncc4)nn23)cc1OC [Compound 550, 5-(3,4-dimethoxy-phenyl)-N-[2-(4-pyridyl)ethyl]imidazo [2,1-b][1,3,4] thiadiazol-2-amine] | 3.14
34 | c1cc(CNc2nn3c(-c4ccncc4)cnc3s2)ccn1 [Compound 551, 5-(4-pyridyl)-N-(4-pyridylmethyl) imidazo[2,1-b] [1,3,4]thiadiazol-2-amine] | 2.65
35 | COc1ccc(-c2cnc3sc(NCCc4ccncc4)nn23)cn1 [Compound 552, 5-(6-methoxy-3-pyridyl)-N-[2-(4-pyridyl)ethyl] imidazo[2,1-b] [1,3,4]thiadiazol-2-amine] | 2.03
36 | NS(=O)(=O)c1ccc(CCNc2nn3c(-c4cccnc4)cnc3s2)cc1 [Compound 553, 4-[2-[[5-(3-pyridyl)imidazo [2,1-d][1,3,4]thiadiazol-2-yl]amino]ethyl] benzene-sulfonamide] | 1.88
37 | c1csc(CNc2nn3c(-c4ccc(N5CCOCC5)cc4)cnc3s2)c1 [Compound 554, 5-(4-morpholino-phenyl)-N-(2-thienylmethyl) imidazo[2,1-b] [1,3,4]thiadiazol-2-amine] | 3.82
38 | COc1ccc(CNc2nn3c(-c4ccc(CO)cc4)cnc3s2)cc1 [Compound 555, [4-[2-[(4-methoxyphenyl)methylamino]imidazo[2,1-b] [1,3,4]thiadiazol-5-yl]phenyl] methanol] | 2.81
39 | Clc1ccc(-c2cnc3sc(NCc4cccnc4)nn23)cc1 [Compound 556, 5-(4-chlorophenyl)-N-(3-pyridylmethyl) imidazo[2,1-b] [1,3,4]thiadiazol-2-amine] | 3.66
40 | CC(=O)Nc1cccc(-c2cnc3sc(NCCc4ccncc4)nn23)c1 [Compound 557, N-[3-[2-[2-(4-pyridyl)ethyl-amino]imidazo [2,1-b][1,3,4]thiadiazol-5-yl]phenyl] acetamide] | 1.32
41 | CN(C)C(=O)c1cccc(-c2cnc3sc(NCCc4ccncc4)nn23)c1 [Compound 558, N,N-dimethyl-3-[2-[2-(4-pyridyl)ethyl-amino]imidazo [2,1-b][1,3,4]thiadiazol-5-yl]benzamide] | 0.721
42 | COc1ccc(CNc2nn3c(-c4ccc(O)c(OC)c4)cnc3s2)cc1 [Compound 559, 2-methoxy-4-[2-[(4-methoxy-phenyl)methyl-amino]imidazo [2,1-b][1,3,4]thiadiazol-5-yl]phenol] | 1.78
43 | COc1ccc(-c2cnc3sc(NCc4cccnc4)nn23)cn1 [Compound 560, 5-(6-methoxy-3-pyridyl)-N-(3-pyridylmethyl) imidazo[2,1-b] [1,3,4]thiadiazol-2-amine] | 2.94
